Measured values: patent publication US6436924B1, “Antihistamine leukotriene combinations” (ASTA Medica AG, priority 2000, dated 2002)

System: nasal mucosal permeability in actively sensitized and topically provoked brown Norway rats
Assay: Rhinitis model: nasal mucosal permeability (Evans Blue plasma extravasation) after ovalbumin provocation
Assay type: in vivo
From the text: The following pharmacological investigation describes the action of azelastine and montelukast on their own and in combination on a rhinitis model on brown Norway rats. The brown Norway rats were actively sensitized by double i.p. injection of a suspension of ovalbumin and aluminum hydroxide in physiological saline solution on two successive days. Three weeks after sensitization, a catheter was tied into the trachea of the animals in orthograde manner under sodium thiopental anesthesia to maintain the respiration of the animals and a further catheter was advanced in a retrograde manner through the trachea up to the internal opening of the choanas for the perfusion of the nasal cavities and fixed. The nasal perfusate can thus trickle out through the nasal cavities and be accepted by a fraction collector. The test substances were either suspended in Tylose (montelukast) or dissolved in physiological saline solution (azelastine) and injected intraperitoneally 60 min before allergen provocation. PBS was perfused through the nasal cavity for 30 min using a roller pump (perfusion rate 0.5 ml/min) to rinse mucus away from the nose. In the case of topical application, the test substances are added to the perfusate in molar concentration and the solution is perfused through the nose for 30 min before allergen provocation. The plasma marker Evans Blue (1 ml/animal each of a 1% strength solution in PBS) was then injected into the jugular vein. The perfusion was collected during a 15 min break. The allergen provocation (challenge) was then carried out by perfusion of the nasal cavity with a solution of ovalbumin in PBS (10 mg/ml of ovalbumin in PBS) for 60 min, during which the perfusate was collected in the fraction collector in 15 min fractions. The total amount of the samples/animal was 5. The samples were centrifuged and then applied to microtiter plates and measured at a wavelength of 620 nm using the Digiscan photometer. The blank values were automatically subtracted. The course of action over 60 min was calculated using an AUC program. The substance action of the preparation group was calculated in % against vehicle controls.
An increased mucosal permeability after allergen provocation is to be assessed as a sign of the release of messengers such as histamine and leukotrienes. After antigen contact, this phenomenon occurs even in allergic people and is manifested by increased fluid secretion and nasal blockage.

[1] = 0.1 mg/kg i.p., 60 min before allergen provocation
[2] = 1 mg/kg i.p., 60 min before allergen provocation

COc1ccc2c(c1)c(O)nn2Cc1ccc(OCc2ccc3ccccc3n2)cc1.Cl.Cl [AWD 23-115, 1-[4-(quinolin-2-ylmethoxy)benzyl]-5-methoxy-1H-indazol-3-ol dihydrochloride]
dose-dependent inhibition of the vascular permeability (dose range of 0.03 to 10 mg/kg i.p.): 37-54%
Inhibitory action in % (nasal mucosal permeability) (topical application in the perfusate, 0.1 mmol/l): 12%
Inhibitory action in % (nasal mucosal permeability) (topical application in the perfusate, 0.3 mmol/l): 32%
Inhibitory action in % (nasal mucosal permeability) (topical application in the perfusate, 1 mmol/l): 49%
inhibition of the vascular permeability (topical application, 0.3 μmol/l): 32%
inhibition of the vascular permeability (topical application, 1 μmol/l): 49%

CN1CCCC(n2nc(Cc3ccc(Cl)cc3)c3ccccc3c2=O)CC1 (centres unmarked) [Azelastine]
Inhibitory action in % (nasal mucosal permeability) (0.01 mg/kg i.p., 60 min before allergen provocation): 11%
Inhibitory action in % (nasal mucosal permeability) [1]: 39%
Inhibitory action in % (nasal mucosal permeability) (0.3 mg/kg i.p., 60 min before allergen provocation): 42%
Inhibitory action in % (nasal mucosal permeability) [2]: 47%
Inhibitory action in % (nasal mucosal permeability) (topical application in the perfusate, 0.003 mmol/l): 3%
Inhibitory action in % (nasal mucosal permeability) (topical application in the perfusate, 0.01 mmol/l): 40%
Inhibitory action in % (nasal mucosal permeability) (topical application in the perfusate, 0.03 mmol/l): 60%
inhibition of the mucosal plasma extravasation (topical application, concentrations of 0.003 to 0.03 μmol/l): strong inhibition

O=C(O)[C@@H](c1ccc(OCc2ccc3ccccc3n2)cc1)C1CCCC1 [Bay X 1005]
Inhibitory action in % (nasal mucosal permeability) [1]: 31%

CC(C)(O)c1ccccc1CC[C@@H](SCC1(CC(=O)O)CC1)c1cccc(/C=C/c2ccc3ccc(Cl)cc3n2)c1 [Montelukast]
Inhibitory action in % (nasal mucosal permeability) [1]: 7%
Inhibitory action in % (nasal mucosal permeability) [2]: 26%
Inhibitory action in % (nasal mucosal permeability) (3 mg/kg i.p., 60 min before allergen provocation): 39%
Inhibitory action in % (nasal mucosal permeability) (10 mg/kg i.p., 60 min before allergen provocation): 44%
Inhibitory action in % (nasal mucosal permeability) (30 mg/kg i.p., 60 min before allergen provocation): 58%
